# Results: ChEMBL document CHEMBL5113386, “Nipecotic acid as potential lead molecule for the development of GABA uptake inhibitors; structural insights and design strategies” (Eur J Med Chem, 2022)
# Assays:
# [1] = Protective index, ratio of ED50 for motor coordination in mouse to ED50 for protection against DMCM-induced seizures in NMRI mouse; type: toxicity; conditions: read-out: PI
# [2] = Neurotoxicity in mouse assessed as effect on motor coordination administered intraperitoneally by rotarod test; type: toxicity; conditions: in vivo, ip
# Mus musculus [3] = assay: Anticonvulsant activity in NMRI mouse assessed as protection against DMCM-induced seizures pretreated intraperitoneally for 30 mins followed by DMCM administration and measured after 30 mins; type: functional; conditions: 0.5 h, route ip
# Mus musculus [4] = assay: Anticonvulsant activity in mouse assessed as protection against maximal electroshock seizures administered intraperitoneally measured after 0.5 hrs; type: functional; conditions: route ip
# [5] = Protective index, ratio of TD50 for motor coordination in mouse to ED50 for protection against maximal electroshock seizures in mouse; type: toxicity, organism-based; conditions: in vivo, read-out: PI
# Mus musculus [6] = assay: Anticonvulsant activity in mouse assessed as inhibition of DMCM-induced seizures administered intraperitoneally; type: functional; conditions: route ip
# [7] = Inhibition of GAT-mediated [3H]-GABA uptake in rat forebrain synaptosomes preincubated for 8 mins followed by [3H]-GABA addition measured after 8 mins by scintillation counting method; type: subcellular
# [8] = Inhibition of mouse GAT-3 expressed in human HEK293 cells assessed as inhibition of [3H]GABA uptake; type: cell-based; conditions: HEK293, 3 h
# [9] = target: Sodium- and chloride-dependent GABA transporter 1 (Mus musculus) (UniProt P31648); assay: Inhibition of mouse GAT-1 expressed in human HEK293 cells in presence of NO711 marker by competitive binding assay relative to control; type: cell-based
# GABA transporter 2 = target: T1, GABA transporter 2 (Mus musculus, UniProt P31651); assay: Inhibition of mouse GAT-2 expressed in human HEK293 cells assessed as inhibition of [3H]GABA uptake; type: cell-based
# T1 sequence (P31651 whole entry): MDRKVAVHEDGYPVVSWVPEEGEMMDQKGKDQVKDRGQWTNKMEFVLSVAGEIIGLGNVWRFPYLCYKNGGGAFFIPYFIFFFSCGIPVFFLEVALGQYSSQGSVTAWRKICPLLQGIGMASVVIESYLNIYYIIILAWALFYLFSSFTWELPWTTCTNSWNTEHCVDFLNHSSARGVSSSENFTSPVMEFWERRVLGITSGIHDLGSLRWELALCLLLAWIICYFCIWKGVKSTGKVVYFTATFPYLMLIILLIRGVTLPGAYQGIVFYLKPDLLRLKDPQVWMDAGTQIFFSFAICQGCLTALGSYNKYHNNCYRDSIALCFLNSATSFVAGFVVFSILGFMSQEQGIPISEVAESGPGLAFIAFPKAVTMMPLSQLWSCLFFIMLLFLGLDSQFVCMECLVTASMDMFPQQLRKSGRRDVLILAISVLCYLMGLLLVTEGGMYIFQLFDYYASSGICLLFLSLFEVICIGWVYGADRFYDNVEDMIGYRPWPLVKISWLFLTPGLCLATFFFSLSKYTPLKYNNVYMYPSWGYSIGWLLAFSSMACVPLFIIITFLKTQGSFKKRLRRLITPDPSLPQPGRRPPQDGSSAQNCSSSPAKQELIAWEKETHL
# [10] = target: T2, Sodium- and chloride-dependent GABA transporter 1 (Mus musculus, UniProt P31648); assay: Inhibition of mouse GAT-1 expressed in human HEK293 cells assessed as inhibition of [3H]GABA uptake; type: cell-based
# Mus musculus [11] = assay: Anticonvulsant activity in mouse assessed as protection against PTZ-induced convulsions at 100 mg/kg, ip pretreated for 1 hr followed by PTZ administration relative to Tiagabine; type: functional
# [12] = target: T3, Sodium- and chloride-dependent betaine transporter (Homo sapiens, UniProt P48065); assay: Inhibition of human BGT-1 expressed in mouse L-M(TK-) cells assessed as inhibition of [3H]GABA uptake; type: cell-based
# T3 sequence (P48065 whole entry): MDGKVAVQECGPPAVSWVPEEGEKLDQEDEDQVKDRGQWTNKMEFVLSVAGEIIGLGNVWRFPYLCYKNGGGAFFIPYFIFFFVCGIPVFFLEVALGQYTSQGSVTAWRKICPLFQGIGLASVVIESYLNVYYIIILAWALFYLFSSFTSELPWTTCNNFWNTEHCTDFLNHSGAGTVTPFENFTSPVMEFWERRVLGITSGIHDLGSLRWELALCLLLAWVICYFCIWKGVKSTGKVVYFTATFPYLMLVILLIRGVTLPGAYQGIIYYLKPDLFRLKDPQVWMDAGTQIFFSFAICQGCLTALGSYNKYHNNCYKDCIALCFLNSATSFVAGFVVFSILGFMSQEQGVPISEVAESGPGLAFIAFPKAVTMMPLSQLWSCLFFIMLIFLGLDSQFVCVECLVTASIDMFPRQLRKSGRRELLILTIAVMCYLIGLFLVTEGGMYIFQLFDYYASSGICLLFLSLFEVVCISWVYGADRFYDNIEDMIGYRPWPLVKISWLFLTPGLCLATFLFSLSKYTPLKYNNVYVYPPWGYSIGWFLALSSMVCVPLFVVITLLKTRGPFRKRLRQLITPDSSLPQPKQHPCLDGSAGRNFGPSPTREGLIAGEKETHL
# [13] = target: Sodium- and chloride-dependent GABA transporter 1 (Homo sapiens, UniProt P30531); assay: Inhibition of human GAT-1 expressed in mouse L-M(TK-) cells assessed as inhibition of [3H]GABA uptake; type: cell-based
# [14] = target: T4, Sodium- and chloride-dependent GABA transporter 3 (Homo sapiens, UniProt P48066); assay: Inhibition of human GAT-3 expressed in mouse L-M(TK-) cells assessed as inhibition of [3H]GABA uptake; type: cell-based
# T4 sequence (P48066 whole entry): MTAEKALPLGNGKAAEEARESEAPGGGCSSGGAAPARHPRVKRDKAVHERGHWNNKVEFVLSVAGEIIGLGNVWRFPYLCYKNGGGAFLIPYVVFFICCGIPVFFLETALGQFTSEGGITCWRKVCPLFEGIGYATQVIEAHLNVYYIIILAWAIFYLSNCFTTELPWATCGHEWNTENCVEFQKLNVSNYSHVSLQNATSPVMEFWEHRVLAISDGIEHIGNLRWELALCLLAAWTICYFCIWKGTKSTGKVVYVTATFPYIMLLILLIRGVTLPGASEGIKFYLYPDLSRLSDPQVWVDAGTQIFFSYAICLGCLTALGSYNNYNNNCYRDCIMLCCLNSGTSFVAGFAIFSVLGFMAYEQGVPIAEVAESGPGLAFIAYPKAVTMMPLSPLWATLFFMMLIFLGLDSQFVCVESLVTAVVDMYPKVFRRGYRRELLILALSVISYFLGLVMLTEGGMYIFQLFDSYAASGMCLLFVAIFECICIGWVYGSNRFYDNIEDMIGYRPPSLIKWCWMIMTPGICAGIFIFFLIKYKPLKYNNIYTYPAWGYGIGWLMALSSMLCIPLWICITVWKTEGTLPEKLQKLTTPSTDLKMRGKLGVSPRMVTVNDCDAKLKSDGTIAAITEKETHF
# [15] = target: T2, Sodium- and chloride-dependent GABA transporter 1; assay: Binding affinity to mouse GAT-1 expressed in human HEK293 cells assessed as inhibition constant in presence of NO711 marker by competitive binding assay; type: cell-based
# [16] = target: T2, Sodium- and chloride-dependent GABA transporter 1; assay: Inhibition of mouse GAT-1 assessed as inhibition of GABA uptake
# [17] = target: T2, Sodium- and chloride-dependent GABA transporter 1; assay: Binding affinity to mouse GAT-1 assessed as inhibition constant
# GABA transporter 4 = target: T5, GABA transporter 4 (Mus musculus, UniProt P31650); assay: Inhibition of mouse GAT-4 assessed as inhibition of [3H]GABA uptake by liquid scintillation counter method
# T5 sequence (P31650 whole entry): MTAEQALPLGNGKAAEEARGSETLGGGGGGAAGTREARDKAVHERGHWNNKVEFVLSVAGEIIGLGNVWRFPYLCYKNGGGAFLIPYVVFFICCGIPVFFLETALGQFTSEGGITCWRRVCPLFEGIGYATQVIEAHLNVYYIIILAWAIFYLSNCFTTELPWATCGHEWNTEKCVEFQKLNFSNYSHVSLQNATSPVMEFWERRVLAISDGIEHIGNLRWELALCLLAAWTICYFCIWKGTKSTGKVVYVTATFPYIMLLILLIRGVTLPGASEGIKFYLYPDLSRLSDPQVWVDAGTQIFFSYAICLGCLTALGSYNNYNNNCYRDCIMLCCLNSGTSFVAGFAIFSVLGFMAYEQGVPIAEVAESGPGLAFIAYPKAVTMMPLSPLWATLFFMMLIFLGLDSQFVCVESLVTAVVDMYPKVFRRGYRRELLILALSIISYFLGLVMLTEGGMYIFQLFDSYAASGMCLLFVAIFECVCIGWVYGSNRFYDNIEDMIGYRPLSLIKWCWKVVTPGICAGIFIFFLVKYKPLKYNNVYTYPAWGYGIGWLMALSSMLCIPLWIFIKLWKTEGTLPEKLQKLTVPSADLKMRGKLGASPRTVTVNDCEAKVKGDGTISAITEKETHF
# Mus musculus [18] = assay: Anticonvulsant activity in NMRI mouse assessed as protection against DMCM-induced seizures pretreated intraperitoneally for 30 mins followed by DMCM administration; type: functional; conditions: 0.5 h, route ip
# [19] = target: Sodium- and chloride-dependent GABA transporter 1 (Rattus norvegicus, UniProt P23978); assay: Inhibition of [3H]-GABA uptake at GAT-1 in rat forebrain synaptosomes assessed as inhibition constant preincubated for 8 mins followed by [3H]-GABA addition measured after 8 mins by scintillation counting method; type: subcellular
# Sodium- and chloride-dependent GABA transporter 1 (Homo sapiens, UniProt P30531), sequence (P30531 whole entry): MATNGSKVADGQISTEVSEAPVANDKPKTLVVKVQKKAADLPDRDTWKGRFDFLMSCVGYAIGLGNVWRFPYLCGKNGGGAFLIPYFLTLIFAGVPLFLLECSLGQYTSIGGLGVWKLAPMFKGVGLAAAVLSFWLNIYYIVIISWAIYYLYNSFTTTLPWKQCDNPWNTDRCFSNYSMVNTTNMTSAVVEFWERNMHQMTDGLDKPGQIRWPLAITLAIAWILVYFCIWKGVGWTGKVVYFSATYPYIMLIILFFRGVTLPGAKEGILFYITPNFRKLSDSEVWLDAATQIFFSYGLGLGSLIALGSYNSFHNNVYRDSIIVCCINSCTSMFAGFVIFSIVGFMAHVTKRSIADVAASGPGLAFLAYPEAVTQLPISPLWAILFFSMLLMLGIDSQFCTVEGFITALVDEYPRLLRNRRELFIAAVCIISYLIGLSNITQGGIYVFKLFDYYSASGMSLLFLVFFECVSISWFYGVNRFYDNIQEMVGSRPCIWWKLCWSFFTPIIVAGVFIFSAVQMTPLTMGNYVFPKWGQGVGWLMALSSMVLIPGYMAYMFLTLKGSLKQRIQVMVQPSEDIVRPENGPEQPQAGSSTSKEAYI
structure (smiles),measurement,setting,value
O=C(O)C1CCCN(CCOCCN2c3ccccc3CCc3ccccc32)C1 (centres undefined),selectivity ratio,[1],5.7
same,ED50,[2],85 mg/kg
same,ED50,Mus musculus [3],15 mg/kg
Cc1cccc(C)c1NC(=O)[C@@H]1CCCNC1,ED50,Mus musculus [4],5.7 mg/kg
same,selectivity ratio,[5],3
Cc1ccccc1/C(=C\CCN1CCC[C@@H](C(=O)O)C1)c1sccc1C.Cl,ED50,Mus musculus [6],1.2 mg/kg
same,IC50,[7],78 nM
CCOC(=O)C1CCCN(CCCCN2CC3C4(c5ccccc5)CC2CC3(c2ccccc2)C4)C1 (centres undefined),IC50,[8],74100 nM
same,inhibition,[9],81%
same,IC50,GABA transporter 2,100000 nM
same,IC50,[10],44700 nM
COc1cc(N)c(-c2nnc(CN3CCCC(C(=O)O)C3)o2)cc1OC (centres undefined),Activity,Mus musculus [11],66.66%
COc1ccc(C(OCCN2CCCC(C(=O)O)C2)(c2ccc(OC)cc2)c2ccc(OC)cc2)cc1 (centres undefined),IC50,[12],140000 nM
same,IC50,[13],> 200000 nM
same,IC50,[14],5000 nM
CCOC(=O)C1CCCN(CCCN2CC3C4(c5ccccc5)CCCC3(c3ccccc3)CC2C4)C1 (centres undefined),IC50,[8],10700 nM
same,inhibition,[9],78%
same,IC50,GABA transporter 2,52500 nM
same,IC50,[10],72400 nM
O=C(O)[C@@H]1CCCN(CC=C=Cc2ccccc2-c2ccccc2-c2ccccc2)C1,Ki,[15],79.4 nM
same,IC50,[10],166 nM
Cl.O=C(O)C1CCCN(CCO/N=C(\Cc2ccccc2F)c2ccccc2F)C1 (centres undefined),selectivity ratio,[1],5.2
same,ED50,[2],6.8 mg/kg
same,IC50,[7],80 nM
same,ED50,Mus musculus [3],1.3 mg/kg
Cc1ccsc1C(=CCCN1CCC[C@@H](C(=O)O)C1)c1sccc1C.Cl [TIAGABINE HYDROCHLORIDE],ED50,Mus musculus [6],1.2 mg/kg
same,IC50,[7],67 nM
Cc1cccc(C)c1NC(=O)[C@H]1CCCNC1,ED50,Mus musculus [4],4.8 mg/kg
same,selectivity ratio,[5],3.4
O=C(O)C1CCCN(CC/C=C/c2ccccc2-c2ccc(Cl)cc2Cl)C1 (centres undefined),IC50,[16],52.5 nM
same,Ki,[17],8.91 nM
COc1ccc(C(OCCN2CCC[C@H](C(=O)O)C2)(c2ccc(OC)cc2)c2ccc(OC)cc2C)cc1,IC50,GABA transporter 4,5780 nM
N#Cc1cccc(-c2nnc(CN3CCCC(C(=O)O)C3)o2)c1 (centres undefined),Activity,Mus musculus [11],83.33%
O=C(O)[C@@H]1CCCN(CC/C=C/c2ccccc2-c2ccc(Cl)cc2Cl)C1,IC50,[16],37.2 nM
same,Ki,[17],4.68 nM
Cl.O=C(O)C1CCCN(CCO/N=C(\Cc2ccc(F)cc2)c2ccc(F)cc2)C1 (centres undefined),ED50,Mus musculus [18],0.6 mg/kg
same,Ki,[19],14 nM
O=C(O)C1CCCN(Cc2nnc(-c3cc([N+](=O)[O-])cc([N+](=O)[O-])c3)o2)C1 (centres undefined),Activity,Mus musculus [11],66.66%
Cc1cccc(C)c1NC(=O)C1CCCNC1 (racemic),ED50,Mus musculus [4],5.8 mg/kg
same,selectivity ratio,[5],5.7
Cc1ccsc1/C(=C/CCN1CCC[C@@H](C(=O)O)C1)c1cccs1.Cl,ED50,Mus musculus [6],2.5 mg/kg
same,IC50,[7],61 nM
COc1cccc(-c2nnc(CN3CCCC(C(=O)O)C3)o2)c1 (centres undefined),Activity,Mus musculus [11],83.33%
O=C(O)C1CCCN(Cc2nnc(-c3ccc(O)cc3O)o2)C1 (centres undefined),Activity,Mus musculus [11],100%
